Literature values in patent US20110082127A1, “NEW INJECTABLE FORMULATIONS CONTAINING PROGESTERONE” (priority 2004, published 2011).

Conditions: stated by the known art

water solubility: 1.8 g/100 ml
Structure (SMILES): OC[C@H]1O[C@@H]2O[C@H]3[C@H](O)[C@@H](O)[C@@H](O[C@H]4[C@H](O)[C@@H](O)[C@@H](O[C@H]5[C@H](O)[C@@H](O)[C@@H](O[C@H]6[C@H](O)[C@@H](O)[C@@H](O[C@H]7[C@H](O)[C@@H](O)[C@@H](O[C@H]8[C@H](O)[C@@H](O)[C@@H](O[C@H]1[C@H](O)[C@H]2O)O[C@@H]8CO)O[C@@H]7CO)O[C@@H]6CO)O[C@@H]5CO)O[C@@H]4CO)O[C@@H]3CO [unsubstituted β-cyclodextrin, β-cyclodextrin]
